The results in this text go back to the supplement of paper PMC11061612.

Test in all cases: Bliss excess, mean over the matrix (fraction); higher = more synergy
Test [1] deals with BICR78 (Oral Cavity Carcinoma). Summed up:
(§1)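 Bliss excess equals the observed combination effect minus the expected value EA + EB − EA·EB, where EA and EB are the effects of each agent alone. Combination Emax is the second-highest inhibition within the matrix. Inhibition was scaled from CellTiter-Glo 2.0 luminescence, with 0 set by vehicle wells and 1 by blank wells, after 72 hours of two-drug dosing of cells plated in 1536-well plates.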

The next test has as its system SK-MEL-1 (Melanoma). The method, boiled down:
as §1

Test [2] deals with P31-FUJ (Acute Myeloid Leukemia). The method, boiled down: as §1
In test [3] the test system is NOMO-1 (Acute Myeloid Leukemia). The method, boiled down:
as §1

In test [4] the test system is SW48 (Colorectal Carcinoma). The method, boiled down: as §1
For test [5], the system named is SW948 (Colorectal Carcinoma). Summed up:
as §1

Test [6] relates to SLVL (B-Cell Non-Hodgkin's Lymphoma). The method, boiled down: as §1
Test [7] relates to WSU-DLCL2 (B-Cell Non-Hodgkin's Lymphoma). The method, boiled down: as §1
In the next test the test system is CS1 (Chondrosarcoma). Summed up: as §1
Test [8] relates to MEG-01 (Chronic Myelogenous Leukemia). The method, boiled down: as §1
Another test concerns D-392MG (Glioblastoma). Summed up:
as §1

Another test has as its system EW-22 (Ewing's Sarcoma). Summed up:
as §1

Test [9] has as its system SK-UT-1 (Other Solid Carcinomas). Summed up: as §1
The test system of another test is H4 (Low Grade Glioma). The method, boiled down:
as §1

Test [10] concerns YT (Other Blood Carcinomas). Summed up:
as §1

The test system of another test is MSTO-211H (Mesothelioma). The method, boiled down:
as §1

For test [11], the system named is DOK (Oral Cavity Carcinoma). Summed up:
as §1

For test [12], the system named is HCT-116 (Colorectal Carcinoma). Summed up:
as §1

The test system of test [13] is CAL-39 (Other Solid Carcinomas). The method, boiled down:
as §1

Test [14] deals with TC-YIK (Other Solid Carcinomas). The method, boiled down: as §1

As to `C[C@@H](Oc1cc(-c2cnn(C3CCNCC3)c2)cnc1N)c1c(Cl)ccc(F)c1Cl` [Crizotinib] + CC1=C(C(=CC=C1)Cl)NC(=O)C2=CN=C(S2)NC3=CC(=NC(=N3)C)N4CCN(CC4)CCO [Dasatinib] (first compound max 10 µM, 7x7, partner max 2 µM), the Bliss excess in test [1] is 0.0142; with SK-MEL-1 (Melanoma) it was -0.0554; in [2], -0.0311; in [3] it was -0.025; in test [4], -0.0118; in test [5], -0.0118. The Bliss excess in test [6] was 0.0167; in [7] it was 0.0824; in the test on CS1 (Chondrosarcoma), 0.112; in [8], 0.0253; in the test on D-392MG (Glioblastoma), 0.0503; with EW-22 (Ewing's Sarcoma) it was -0.0466. For the same molecule, the Bliss excess in test [9] was 0.0539; with H4 (Low Grade Glioma) it was 0.0857; in test [10], 0.0714; in the test on MSTO-211H (Mesothelioma), 0.0718; in test [11], -0.0008; in test [12], 0.0243. For the same molecule, the Bliss excess was 0.027 in test [13] and -0.0378 in test [14].

Turning to `C[C@@H](Oc1cc(-c2cnn(C3CCNCC3)c2)cnc1N)c1c(Cl)ccc(F)c1Cl` [Crizotinib] + Cn1cnc2c(F)c(Nc3ccc(Br)cc3Cl)c(C(=O)NOCCO)cc21 [Selumetinib] (first compound max 10 µM, 7x7, partner max 10 µM), the Bliss excess in [1] is 0.0006; in the test with SK-MEL-1 (Melanoma), -0.0618; in [2], -0.0781; in test [3], 0.0157; in test [4] it was -0.0323; in test [5], 0.0137. In addition, the Bliss excess is -0.0414 in [6]; -0.0458 in [7]; -0.0203 with CS1 (Chondrosarcoma); 0.0179 in test [8]; -0.0718 with D-392MG (Glioblastoma); -0.0226 in the test with EW-22 (Ewing's Sarcoma). In addition, the Bliss excess in test [9] was 0.0041; in the test on H4 (Low Grade Glioma), 0.0034; in test [10] it was -0.0587; in the test on MSTO-211H (Mesothelioma), 0.0294; in test [11] it was 0.017; in test [12], 0.0323. Besides, the results for the Bliss excess in test [13] and in [14] were 0.0132 and -0.0663, respectively.

As for `O=C(c1cc(Cc2n[nH]c(=O)c3ccccc23)ccc1F)N1CCN(C(=O)C2CC2)CC1` [Olaparib] + CC1(C)CCC(CN2CCN(c3ccc(C(=O)NS(=O)(=O)c4ccc(NCC5CCOCC5)c([N+](=O)[O-])c4)c(Oc4cnc5[nH]ccc5c4)c3)CC2)=C(c2ccc(Cl)cc2)C1 [Venetoclax] (first compound max 10 µM, 7x7, partner max 1 µM), the Bliss excess in test [1] is -0.0733; in the test on SK-MEL-1 (Melanoma), -0.023; in [2], -0.0121; in test [3], 0.0666; in [4], -0.0239; in [5], -0.0528. The Bliss excess in test [6] was 0.0864; in test [7], 0.0235; in the test on CS1 (Chondrosarcoma) it was -0.0621; in test [8], -0.0377; in the test with D-392MG (Glioblastoma), -0.0886; with EW-22 (Ewing's Sarcoma), 0.0348. In addition, the Bliss excess in [9] was 0.0047; with H4 (Low Grade Glioma), -0.011; in test [10], 0.0335; in the test on MSTO-211H (Mesothelioma) it was -0.0264; in [11], -0.0426; in test [12], -0.0156. Further, the Bliss excess was -0.0425 in [13] and -0.0304 in [14].

As for `O=C(c1cc(Cc2n[nH]c(=O)c3ccccc23)ccc1F)N1CCN(C(=O)C2CC2)CC1` [Olaparib] + CN(CC[C@H](CSC1=CC=CC=C1)NC2=C(C=C(C=C2)S(=O)(=O)NC(=O)C3=CC=C(C=C3)N4CCC(CC4)[C@H](C5=CC=CC=C5C6=CC=C(C=C6)Cl)O)S(=O)(=O)C(F)(F)F)CCO [AZD4320] (first compound max 10 µM, 7x7, partner max 1 µM), the Bliss excess was -0.0656 in test [1]; -0.0299 with SK-MEL-1 (Melanoma); -0.131 in test [2]; 0.034 in test [3]; -0.0239 in test [4]; -0.0165 in test [5]. In addition, the Bliss excess in test [6] is 0.0356; in [7] it was 0.0579; in the test on CS1 (Chondrosarcoma) it was -0.0342; in test [8] it was -0.009; in the test with D-392MG (Glioblastoma) it was -0.0317; in the test with EW-22 (Ewing's Sarcoma), 0.0385. Moreover, the Bliss excess in test [9] is 0.0299; in the test on H4 (Low Grade Glioma) it was 0.0106; in test [10], -0.0505; in the test on MSTO-211H (Mesothelioma) it was -0.0173; in [11], -0.101; in test [12], -0.0103. Besides, the values for the Bliss excess in [13] and in [14] were -0.0242 and 0.0047, respectively.

With `O=C(c1cc(Cc2n[nH]c(=O)c3ccccc23)ccc1F)N1CCN(C(=O)C2CC2)CC1` [Olaparib] + COc1nnc2ccc(N3CCC(c4ccc(OCCN5CCN(C)C(=O)[C@H]5C)cc4)CC3)nn12 [AZD5153] (first compound max 10 µM, 7x7, partner max 1 µM), the Bliss excess was -0.0458 in [1]; -0.0316 with SK-MEL-1 (Melanoma); -0.0621 in test [2]; -0.0589 in [3]; -0.071 in test [4]; -0.0441 in test [5]. Further, the Bliss excess was 0.0142 in test [6]; -0.0091 in [7]; -0.0718 in the test with CS1 (Chondrosarcoma); -0.0579 in test [8]; -0.0759 in the test with D-392MG (Glioblastoma); 0.0369 in the test with EW-22 (Ewing's Sarcoma). In addition, the Bliss excess was -0.02 in test [9]; -0.0248 in the test on H4 (Low Grade Glioma); -0.107 in test [10]; -0.0085 in the test on MSTO-211H (Mesothelioma); -0.0404 in test [11]; -0.0206 in test [12]. Moreover, the Bliss excess in [13] is -0.0634; in [14], -0.0784.

For `O=C(c1cc(Cc2n[nH]c(=O)c3ccccc23)ccc1F)N1CCN(C(=O)C2CC2)CC1` [Olaparib] + Cc1c2c(nn1C)CSCc1cc(n(C)n1)CSc1cc(c3ccccc3c1)OCCCc1c(C(=O)O)n(C)c3c-2c(Cl)ccc13 [AZD5991] (first compound max 10 µM, 7x7, partner max 1 µM), the Bliss excess is -0.0643 in [1]; -0.0301 in the test on SK-MEL-1 (Melanoma); -0.0125 in test [2]; -0.0167 in test [3]; -0.0253 in test [4]; -0.0449 in test [5]. The Bliss excess is -0.0034 in [6]; 0.0378 in test [7]; -0.0483 in the test with CS1 (Chondrosarcoma); -0.0416 in [8]; -0.0661 in the test on D-392MG (Glioblastoma); -0.016 with EW-22 (Ewing's Sarcoma). Besides, the Bliss excess in [9] is -0.0141; with H4 (Low Grade Glioma), 0.0256; in test [10], 0.0191; with MSTO-211H (Mesothelioma) it was -0.029; in test [11], -0.0192; in test [12], -0.0086. For the same molecule, the Bliss excess in test [13] is -0.0409; in test [14] it was -0.0566.

For `N#Cc1cnc(Nc2cc(NC[C@H]3CNCCO3)c(C(F)(F)F)cn2)cn1` [SRA737] + C=CCn1c(=O)c2cnc(Nc3ccc(N4CCN(C)CC4)cc3)nc2n1-c1cccc(C(C)(C)O)n1 [AZD1775] (first compound max 10 µM, partner max 1 µM), the Bliss excess is -0.0326 in [1]; -0.0195 in the test on SK-MEL-1 (Melanoma); 0.0411 in test [2]; 0.0706 in test [3]; 0.0468 in test [4]; 0.0054 in test [5]. In addition, the Bliss excess was 0.0581 in test [6]; 0.205 in [7]; 0.0399 in the test with CS1 (Chondrosarcoma); -0.0314 in test [8]; -0.0523 with D-392MG (Glioblastoma); 0.0315 in the test on EW-22 (Ewing's Sarcoma). For the same molecule, the Bliss excess was 0.0497 in test [9]; 0.0327 in the test with H4 (Low Grade Glioma); 0.0379 in test [10]; 0.131 in the test with MSTO-211H (Mesothelioma); -0.0139 in [11]; 0.0011 in test [12]. Further, the Bliss excess is -0.0255 in test [13] and 0.0278 in test [14].
